According to ChEMBL document CHEMBL1140557, “SAR studies of 1,5-diarylpyrazole-based CCK1 receptor antagonists” (Bioorg Med Chem Lett, 2007):

Key:
[1] = Oral bioavailability in rat at 2 umol/kg; format: ADME, organism-based; conditions: in vivo
[2] = Half life in rat; format: ADME, organism-based; conditions: in vivo

## COc1ccc(-n2nc(C[C@H](C(=O)O)c3cccc(C)c3)cc2-c2ccc(Cl)c(Cl)c2)cc1
[1]
  bioavailability: 100%
[2]
  half-life: 5.6 h
